Measurements from patent publication US9382229B2, “Compounds and methods of use thereof for treating neurodegenerative disorders” (THE JOHNS HOPKINS UNIVERSITY, priority 2011, dated 2016).

Key:
[1] = test system: retinal ganglion cells (RGCs); test: RGC cell survival assay with murine purified RGCs, 3 days in culture (Calcein AM/Hoechst/Ethidium homodimer staining, Cellomics imager); assay type: cell-based, mouse; details: for RGC survival: purified mouse RGCs cultured 3 days with 25-5000 nM compound
Method: RGCs were purified from 2-5 day-old C57BL/6 mice, and cultured for 3 days in a media containing Neurobasal and B27, with or without 25-5000 nM of sunitinib (sun) or VX680. RGC survival was determined by combined staining with Calcein A M, Hoescht, and Ethidium homodimer. Images were acquired and analyzed with a Cellomics imager. Error bars: Mean±S.E.M.;
Purified mouse RGCs were cultured in the presence of sunitinib (0.5 μM), 25-5000 nM of VX680, JHU611 or JHU612, for 3 days. RGC survival was determined by combined staining with Calcein A M, Hoescht, and Ethidium homodimer. Images were acquired and analyzed with a Cellomics imager. Error bars: Mean±S.E.M.;
Purified mouse RGCs were cultured in the presence of sunitinib (0.5 μM), 25-5000 nM of VX680, JHU609 or JHU610, for 3 days. RGC survival was determined by combined staining with Calcein A M, Hoescht, and Ethidium homodimer. Images were acquired and analyzed with a Cellomics imager. Error bars: Mean±S.E.M.;
Purified mouse RGCs were cultured in the presence of sunitinib (0.5 μM), 25-5000 nM of VX680, JHU607 or JHU608, for 3 days. The percentages of RGC survival was determined by combined staining with Calcein A M, Hoescht, and Ethidium homodimer. Images were acquired and analyzed with a Cellomics imager. Error bars: Mean±S.E.M.;
RGCs were cultured with the indicated drug at the indicated concentration, cultured, and survival was monitored using a calcein AM assay with a Cellomics VTI imager (Thermo Scientific, 100 Technology Drive, Pittsburgh, Pa.) and image analysis software.

[2] = test system: primary murine retinal ganglion cells (RGCs); test: RGC-based high content screen of small molecule libraries (CellTiter-Glo ATP, PI/Hoechst staining); assay type: cell-based, mouse; details: purified primary murine RGCs, CellTiter-Glo or PI/Hoechst
Method: Survival of purified mouse RGCs with increasing concentrations of VX680 (tozasertib) was determined by measuring cellular ATP levels with CellTiter-Glo (CTG), or by combined staining with Propidium iodide (PI) and Hoescht (Hoe) (PI/Hoe) (FIG. 8A). The efficacy in promoting primary mouse RGC survival by VX680 and NCGC00188382-01 was quantified and compared to sunitinib (FIGS. 8B and 8C).

[3] = test system: retinal ganglion cells (RGCs); test: Time course of RGC cell survival with murine purified RGCs, up to 6 days in vitro; assay type: cell-based, mouse; details: for RGC survival: 6 days in vitro (DIV6), percent survival compared to zero time per FIG. 2 legend, Mean±S.E.M.
Method: FIG. 2 is a comparison of the relative efficacy of sunitinib, VX680 and neurotrophic factors in promoting RGC survival in vitro. […] Purified mouse RGCs were cultured in the presence of sunitinib (0.5 or 1 μM), VX680 (1 or 2 μM), and a combination of BDNF, CNTF, and GDNF, for up to 6 days. RGC survival (percent survival compared to zero time) was determined at the indicated day in vitro (DIV) (0, 1, 2, 3, and 6 DIV). Error bars: Mean±S.E.M.;
FIG. 3 is representative images showing the RGCs from the study described in FIG. 2;
For comparison, data from vehicle and BDNF/CNTF/GDNF also are shown.

hippocampal neurons = test: Hippocampal neuron survival against 3-nitropropionic acid (3-NP) induced cell death, MTT assay; assay type: cell-based; details: cell death induced by 3-NP, VX680 at 0.5, 1, 5 and 10 μM
Method: Cell death of hippocampal neurons was induced by the mitochondrial toxin 3-nitropropionic acid (3-NP). VX680 was added to the media at concentrations of 0.5 μM, 1 μM, 5 μM and 10 μM. Cell survival was determined using a MTT assay. The effect of VX680 on cell survival was analyzed with the student t-test. Error bars: Mean±S.D.; and […]

Cc1cc(Nc2nc(Cl)nc(Sc3ccc(NC(=O)C4CC4)cc3)n2)n[nH]1 [JHU607, N-(4-(4-chloro-6-(5-methyl-1H-pyrazol-3-ylamino)-1,3,5-triazin-2-ylthio)phenyl)cyclopropanecarboxamide]
RGC survival [1]: promote RGC survival

Cc1cc(Nc2nc(Sc3ccc(NC(=O)C4CC4)cc3)nc(N3CCNCC3)n2)n[nH]1 [JHU608, N-(4-(4-(5-methyl-1H-pyrazol-3-ylamino)-6-(piperazin-1-yl)-1,3,5-triazin-2-ylthio)phenyl)cyclopropanecarboxamide]
RGC survival [1]: promote RGC survival

Cc1cc(Nc2nc(Sc3ccc(NC(=O)C4CC4)cc3)nc(N3CCOCC3)n2)n[nH]1 [JHU609, N-(4-(4-(5-methyl-1H-pyrazol-3-ylamino)-6-morpholino-1,3,5-triazin-2-ylthio)phenyl)cyclopropanecarboxamide]
RGC survival [1]: promote RGC survival

Cc1cc(Nc2nc(Sc3ccc(NC(=O)C4CC4)cc3)nc(N3CCC(N4CCCC4)CC3)n2)n[nH]1 [JHU610, N-(4-(4-(5-methyl-1H-pyrazol-3-ylamino)-6-(4-(pyrrolidin-1-yl)piperidin-1-yl)-1,3,5-triazin-2-ylthio)phenyl)cyclopropanecarboxamide]
RGC survival [1]: promote RGC survival

Cc1cc(Nc2nc(Sc3ccc(NC(=O)C4CC4)cc3)nc(N3CCC(O)CC3)n2)n[nH]1 [JHU611, N-(4-(4-(4-hydroxypiperidin-1-yl)-6-(5-methyl-1H-pyrazol-3-ylamino)-1,3,5-triazin-2-ylthio)phenyl)cyclopropanecarboxamide]
RGC survival [1]: promote RGC survival

Cc1cc(Nc2nc(Sc3ccc(NC(=O)C4CC4)cc3)nc(N3CCCNCC3)n2)n[nH]1 [JHU612, N-(4-(4-(1,4-diazepan-1-yl)-6-(5-methyl-1H-pyrazol-3-ylamino)-1,3,5-triazin-2-ylthio)phenyl)cyclopropanecarboxamide]
RGC survival [1]: promote RGC survival

CC(NCc1ccc2c(c1)nc(NC(=O)c1ccc(-c3cn[nH]c3)s1)n2CC(C)(C)O)C(C)(C)C (stereo not drawn) [NCGC00188382-01]
RGC survival / neuroprotection in high content screen [2]: neuroprotective compounds

CCN(CC)CCNC(=O)c1c(C)[nH]c(/C=C2\C(=O)Nc3ccc(F)cc32)c1C [Sunitinib, sunitinib]
RGC survival ([3]; 0.5 μM): 23.73 ± 1.17
RGC survival ([3]; 1 μM): 26.37 ± 1.61

Cc1cc(Nc2cc(N3CCN(C)CC3)nc(Sc3ccc(NC(=O)C4CC4)cc3)n2)[nH]n1 [VX-680, Tozasertib]
therapeutic window compared with sunitinib ([1]; FIG. 1, murine purified RGCs): wider therapeutic window
cell survival promoting activity compared with sunitinib ([1]; FIG. 1, murine purified RGCs, calcein AM assay, sunitinib as positive control): more potent cell survival promoting activity than sunitinib
RGC survival [1]: promotes retinal ganglion cell (RGC) survival in vitro
RGC survival ([3]; 1 μM): 49.66 ± 2.27
RGC survival ([3]; 2 μM): 60.32 ± 2.47
neuroprotective activity compared with sunitinib and BDNF/CNTF/GDNF combination ([3]; FIG. 2, time course 0-6 DIV): exceeds that of sunitinib and a combination of brain derived neurotrophic factor (BDNF) ciliary neurotrophic factor (CNTF), and glial-derived neurotrophic factor (GDNF)
survival of hippocampal neurons (hippocampal neurons): promotes the survival of hippocampal neurons against mitochondrial injury and oxidative stress
RGC survival / neuroprotection in high content screen [2]: could promote the survival of cultured RGCs
RGC survival / neuroprotection in high content screen ([2]; listed as VX680): neuroprotective compounds
